In general, Ki refers to a measure of affinity in units of concentration, obtained from inhibition or displacement. A high value points to a looser hold on the target.

What all share (test): β-Gal Inhibitory Assay
Common to all, as to settings: pH 4.5; 37 °C

Test [1] addresses T1, Beta-galactosidase [24-677,I51T] (Human, UniProt P16278, I51T).
T1 construct: 24-677
As for the experimental part:
(§1) β-Gal activity was measured by using 4-methylumbelliferyll-β-D-galactopyranoside in buffer B (0.15 M sodium citrate, pH 4.5, and 0.2 M NaCl) as a substrate, and incubating at 37 °C for 6 min.

Test [2] has as its target T2, Beta-galactosidase [24-677,R201C] (Human, UniProt P16278, R201C).
T2 construct: 24-677
How it is done: as §1

For test [3], the target named is T3, Beta-galactosidase [24-677] (Human, UniProt P16278).
T3 construct: 24-677
T3 sequence (P16278 whole entry): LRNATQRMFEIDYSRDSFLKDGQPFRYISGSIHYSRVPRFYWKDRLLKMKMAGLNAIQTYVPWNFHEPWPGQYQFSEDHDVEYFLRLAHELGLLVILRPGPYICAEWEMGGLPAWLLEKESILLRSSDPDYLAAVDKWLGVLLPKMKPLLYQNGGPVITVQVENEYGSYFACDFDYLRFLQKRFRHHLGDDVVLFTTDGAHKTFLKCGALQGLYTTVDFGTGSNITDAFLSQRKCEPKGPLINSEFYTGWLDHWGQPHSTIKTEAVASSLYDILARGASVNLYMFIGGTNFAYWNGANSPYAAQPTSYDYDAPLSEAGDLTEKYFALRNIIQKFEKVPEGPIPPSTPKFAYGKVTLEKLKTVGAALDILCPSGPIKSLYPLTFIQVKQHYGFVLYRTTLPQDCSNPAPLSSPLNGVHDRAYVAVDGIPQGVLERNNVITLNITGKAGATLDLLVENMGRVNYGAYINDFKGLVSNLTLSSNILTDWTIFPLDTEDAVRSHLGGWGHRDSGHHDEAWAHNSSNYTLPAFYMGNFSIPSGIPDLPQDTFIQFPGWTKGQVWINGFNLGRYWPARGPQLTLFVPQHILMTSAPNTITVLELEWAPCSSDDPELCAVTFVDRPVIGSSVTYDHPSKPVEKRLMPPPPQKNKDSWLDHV
How it is done:
as §1

Turning to `CCCC/N=C1\SC[C@@H]2[C@H](O)[C@H](O)[C@@H](O)CN12` [5N,6S-(N'-butyliminomethylidene)-6-thio-1-deoxygalactonojirimycin], the Ki in test [1] came out at 68.8 µM; in test [2] it was 53.3 µM; in test [3], 68.3 µM.

On to `CCCC/N=C1/SCC2[C@H](O)[C@H](O)C(O)[C@@H](O)N12` (stereo partly drawn) [5N,6S-(N'-butyliminomethylidene)-6-thiogalactonojirimycin], for which the Ki in test [1] stood at 320 µM; in test [2], 320 µM; in test [3], 253 µM.

With `OC[C@H]1OC(O)[C@H](O)[C@@H](O)[C@H]1O` (stereo not given in full) [Galactose], the Ki came to 4910 µM in test [1], 5610 µM in test [2] and 4140 µM in test [3].

On to `CCCCNC(=S)N1CC(O)[C@@H](O)[C@@H](O)C1CO` (stereo not given in full) [N-(N'-butylthiocarbamoyl)-1-deoxygalactonojirimycin], for which the inhibitory constant (Ki) is 329 µM in test [1], 388 µM in test [2] and 373 µM in test [3].

`CCCCCCCCN[C@H]1C=C(CO)[C@@H](O)[C@H](O)[C@H]1O` [NOEV]: the figures for the inhibition constant Ki in test [1], in test [2] and in test [3] were 1.2 µM, 0.94 µM and 1.1 µM, respectively.

Source of the values: BindingDB's records for doi:10.1074/jbc.M113.529529 (The University of Tokyo, 2014).
